Patent US10934274B2, “Quinoline derivatives as TAM RTK inhibitors” (Qurient Co., Ltd., priority 2015, dated 2021)

How the values were obtained:
Mer = biological target: T1, Mer (Homo sapiens, UniProt Q12866); assay: LanthaScreen Eu kinase binding assay, Mer; conditions: Tracer 236
T1 construct: purchased Life Technologies
T1 sequence (Q12866 21-999): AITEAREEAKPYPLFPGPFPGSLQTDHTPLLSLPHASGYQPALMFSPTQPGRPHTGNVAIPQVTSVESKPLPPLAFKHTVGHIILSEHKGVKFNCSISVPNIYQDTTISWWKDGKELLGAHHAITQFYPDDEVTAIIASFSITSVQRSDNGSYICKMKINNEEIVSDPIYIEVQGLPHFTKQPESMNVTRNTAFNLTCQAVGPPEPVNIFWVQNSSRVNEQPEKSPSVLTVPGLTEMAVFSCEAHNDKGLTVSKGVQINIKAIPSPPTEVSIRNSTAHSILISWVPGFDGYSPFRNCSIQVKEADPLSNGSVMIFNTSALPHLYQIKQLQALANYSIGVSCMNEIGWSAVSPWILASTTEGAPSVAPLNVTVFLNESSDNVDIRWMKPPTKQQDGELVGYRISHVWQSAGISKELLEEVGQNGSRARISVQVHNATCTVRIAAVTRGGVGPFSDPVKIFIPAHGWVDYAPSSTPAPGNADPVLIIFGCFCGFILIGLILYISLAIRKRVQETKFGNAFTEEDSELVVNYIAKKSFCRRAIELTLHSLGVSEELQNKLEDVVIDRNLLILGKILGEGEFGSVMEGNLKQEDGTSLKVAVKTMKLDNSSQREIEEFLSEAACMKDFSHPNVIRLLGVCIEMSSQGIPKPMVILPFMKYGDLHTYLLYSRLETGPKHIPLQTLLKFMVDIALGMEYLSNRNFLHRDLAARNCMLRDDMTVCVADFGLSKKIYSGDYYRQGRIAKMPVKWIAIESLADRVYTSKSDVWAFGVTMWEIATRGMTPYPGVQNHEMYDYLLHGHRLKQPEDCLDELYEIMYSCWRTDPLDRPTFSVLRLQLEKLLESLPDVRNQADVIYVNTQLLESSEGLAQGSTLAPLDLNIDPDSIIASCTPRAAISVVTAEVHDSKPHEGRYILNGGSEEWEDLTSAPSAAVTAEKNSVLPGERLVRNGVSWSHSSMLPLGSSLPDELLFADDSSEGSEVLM

Met = biological target: T2, Met (Homo sapiens, UniProt P08581); assay: LanthaScreen Eu kinase binding assay, Met; conditions: Tracer 236, read-out: cMet kinase binding activity (Kd)
T2 construct: purchased Life Technologies
T2 sequence (P08581 25-1390): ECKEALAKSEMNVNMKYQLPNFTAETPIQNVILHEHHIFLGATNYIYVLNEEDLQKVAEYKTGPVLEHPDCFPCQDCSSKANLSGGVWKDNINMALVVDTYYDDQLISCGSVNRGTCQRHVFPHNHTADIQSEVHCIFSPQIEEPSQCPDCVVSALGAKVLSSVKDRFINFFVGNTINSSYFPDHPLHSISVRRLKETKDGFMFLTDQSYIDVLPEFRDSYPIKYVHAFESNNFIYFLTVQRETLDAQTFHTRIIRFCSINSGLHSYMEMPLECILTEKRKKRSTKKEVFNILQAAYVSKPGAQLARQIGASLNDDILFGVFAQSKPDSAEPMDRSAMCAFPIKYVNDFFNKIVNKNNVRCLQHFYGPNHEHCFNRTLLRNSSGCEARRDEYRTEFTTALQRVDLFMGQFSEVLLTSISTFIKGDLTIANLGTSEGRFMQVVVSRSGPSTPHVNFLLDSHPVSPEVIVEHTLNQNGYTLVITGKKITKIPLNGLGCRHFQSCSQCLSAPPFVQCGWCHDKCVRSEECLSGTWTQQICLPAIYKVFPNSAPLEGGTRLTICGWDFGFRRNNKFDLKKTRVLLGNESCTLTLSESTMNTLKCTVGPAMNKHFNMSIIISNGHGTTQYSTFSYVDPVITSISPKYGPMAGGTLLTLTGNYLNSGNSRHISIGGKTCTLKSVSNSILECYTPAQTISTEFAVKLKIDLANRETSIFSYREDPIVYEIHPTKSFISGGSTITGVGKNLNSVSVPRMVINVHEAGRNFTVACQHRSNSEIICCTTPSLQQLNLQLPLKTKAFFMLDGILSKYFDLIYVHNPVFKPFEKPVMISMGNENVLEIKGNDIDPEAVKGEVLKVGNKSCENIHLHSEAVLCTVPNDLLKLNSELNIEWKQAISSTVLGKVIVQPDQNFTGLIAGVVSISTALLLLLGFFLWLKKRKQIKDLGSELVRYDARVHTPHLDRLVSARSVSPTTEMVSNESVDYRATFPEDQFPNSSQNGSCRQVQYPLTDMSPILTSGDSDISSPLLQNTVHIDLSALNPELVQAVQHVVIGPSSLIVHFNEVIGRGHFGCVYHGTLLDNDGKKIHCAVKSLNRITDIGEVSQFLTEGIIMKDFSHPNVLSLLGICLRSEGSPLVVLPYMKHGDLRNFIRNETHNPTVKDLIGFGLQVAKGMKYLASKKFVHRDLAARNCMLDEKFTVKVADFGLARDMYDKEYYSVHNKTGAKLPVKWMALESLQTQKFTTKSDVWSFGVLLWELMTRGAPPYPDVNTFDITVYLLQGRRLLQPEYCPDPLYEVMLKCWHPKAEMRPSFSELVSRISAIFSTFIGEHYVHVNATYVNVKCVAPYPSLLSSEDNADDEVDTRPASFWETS

[1] = tested on: Axl phosphorylation in transiently transfected HEK293T cells; assay: Cellular Axl phosphorylation assay; type: cell-based; conditions: Homo sapiens, HEK-293T; HEK293T cells transfected with Axl, 1 hour compound treatment, Phospho-Axl vs Total-Axl
From the text: Cell AXL Inhibition Assay Principle
The assay is based on the measurement of the relative amounts of Total-Axl and Phosphorylated-Axl in whole cell lysates of transiently transfected HEK293T cells. This assay is based on application of the Mesoscale western blot and subsequent electro-chemiluminescence detection. Overexpression of Axl-RTK (Receptor tyrosine kinase) by transfection leads to an increase in Axl-trans-autophosphorylation events. Upon compound treatment, the correlation of the measured values of Phosphorylated-Axl and Total Axl indicate the potential of the tested compound to inhibit Axl-phosphorylation at the given compound concentration.
Cell AXL Inhibition Assay Protocol
HEK293T cells (2.5×10^4/well) were plated in a 96 well plate and cells were transfected with pcDNA_DEST_40 Axl or pcDNA_DEST_40 by Superfact reagent (Qiagen. Co. Ltd.). After overnight, the transfection reagent of each well was removed from cells and replaced by fresh prewarmed medium. On the following day, cells were treated with the respective test compound which was diluted by the same method, as in the Axl binding assay using DMSO, for 1 hour
After incubation with the test compounds, cells in the well of the plate were lysed using Tris lysis buffer. The lysate was transferred to two plates (total-Axl and phosphor-Axl) Mesoscale high bind plates and incubated for two hours at room temperature. Afterwards the lysates were removed from the plates and the plates were blocked using Blocking buffer. Subsequently Total-Axl antibody (H-124, Santa Cruz) was transferred to one Mesoscale high bind plate, and Phospho-Axl antibody (AF2228, R&D) to the other plate. After 1 h incubation, Sulpho-Tag antibody (goat anti-rabbit, Mesoscale) was added and again incubated for 1 hour. For the measurement, 2×MSD read buffer was added to each well and the plates were analyzed with a Mesoscale Sector Imager 2400. IC50 (half the maximal inhibitory concentration) was determined relative to between the vehicle (DMSO) control group and minimum control group as transfection of the control vector (pcDNA_DEST_40).
The results after this assay are shown in table 3 for selected compounds.

Row | SMILES | Kd (Mer) [µM] | Kd (Met) [µM] | IC50 [1] [µM]
1 | CCOc1cn(-c2ccc(N)nc2)nc1C(=O)Nc1ccc(Oc2ccnc3cc(OC)c(OC)cc23)cn1 [Compound 6] | < 0.1 | 0.1 to 1 | < 0.1
2 | CCOc1cn(-c2ccnc(O)c2)nc1C(=O)Nc1ccc(Oc2ccnc3cc(OC)c(OC)cc23)cn1 [Compound 7] | < 0.1 | < 0.1 | ≥ 1
3 | CCOc1cn(-c2cn[nH]c2)nc1C(=O)Nc1ccc(Oc2ccnc3cc(OC)c(OC)cc23)cn1 [Compound 8] | < 0.1 | < 0.1 | < 0.1
4 | CCOc1cn(-c2cnc(N)nc2)nc1C(=O)Nc1ccc(Oc2ccnc3cc(OC)c(OC)cc23)cn1 [Compound 10] | < 0.1 | < 0.1 | < 0.1
5 | CCOc1cn(-c2cncn2C)nc1C(=O)Nc1ccc(Oc2ccnc3cc(OC)c(OC)cc23)cn1 [Compound 11] | < 0.1 | 0.1 to 1 | < 0.1
6 | CCOc1cn(-c2nccs2)nc1C(=O)Nc1ccc(Oc2ccnc3cc(OC)c(OC)cc23)cn1 [Compound 12] | < 0.1 | 0.1 to 1 | < 0.1
7 | CCOc1cn(-c2cscn2)nc1C(=O)Nc1ccc(Oc2ccnc3cc(OC)c(OC)cc23)cn1 [Compound 13] | < 0.1 | < 0.1 | < 0.1
8 | CCOc1cn(-c2cncs2)nc1C(=O)Nc1ccc(Oc2ccnc3cc(OC)c(OC)cc23)cn1 [Compound 14] | < 0.1 | < 0.1 | < 0.1
9 | CCOc1cnn(-c2cncs2)c1C(=O)Nc1ccc(Oc2ccnc3cc(OC)c(OC)cc23)cn1 [Compound 16] | < 0.1 | 0.1 to 1 | 0.1 to 1
10 | CCOc1cn(-c2cnc(CO)nc2)nc1C(=O)Nc1ccc(Oc2ccnc3cc(OC)c(OC)cc23)cn1 [Compound 96] | < 0.1 | ≥ 1 | < 0.1
11 | CCOc1cn(-c2ccc(F)cc2C)nc1C(=O)Nc1ccc(Oc2ccnc3cc(OC)c(OC)cc23)nn1 [Compound 97] | < 0.1 | ≥ 1 | < 0.1
12 | CCOc1cn(-c2ccc(C(F)(F)F)cc2C)nc1C(=O)Nc1ccc(Oc2ccnc3cc(OC)c(OC)cc23)cn1 [Compound 99] | < 0.1 | ≥ 1 | < 0.1
13 | CCOc1cn(-c2ccc(C)cc2F)nc1C(=O)Nc1ccc(Oc2ccnc3cc(OC)c(OC)cc23)cn1 [Compound 100] | < 0.1 | 0.1 to 1 | < 0.1
14 | CCOc1cn(-c2ccc(Cl)cc2C(F)(F)F)nc1C(=O)Nc1ccc(Oc2ccnc3cc(OC)c(OC)cc23)cn1 [Compound 101] | < 0.1 | < 0.1 | < 0.1
15 | CCOc1cnn(-c2ccc(C(F)(F)F)cc2C)c1C(=O)Nc1ccc(Oc2ccnc3cc(OC)c(OC)cc23)cn1 [Compound 102] | 0.1 to 1 | ≥ 1 | < 0.1
16 | CCOc1cn(-c2ccc(F)cc2C(F)(F)F)nc1C(=O)Nc1ccc(Oc2ccnc3cc(OC)c(OC)cc23)cn1 [Compound 104] | < 0.1 | < 0.1 | < 0.1
17 | CCOc1cn(-c2ccc(C(F)(F)F)cc2C(F)(F)F)nc1C(=O)Nc1ccc(Oc2ccnc3cc(OC)c(OC)cc23)cn1 [Compound 105] | < 0.1 | < 0.1 | < 0.1
18 | CCOc1cn(-c2ccc(Cl)cc2F)nc1C(=O)Nc1ccc(Oc2ccnc3cc(OC)c(OC)cc23)cn1 [Compound 106] | < 0.1 | < 0.1 | < 0.1
19 | CCOc1cn(-c2ccc(F)cc2F)nc1C(=O)Nc1ccc(Oc2ccnc3cc(OC)c(OC)cc23)cn1 [Compound 107] | < 0.1 | < 0.1 | < 0.1
20 | CCOc1cn(-c2ccc(Cl)cc2Cl)nc1C(=O)Nc1ccc(Oc2ccnc3cc(OC)c(OC)cc23)cn1 [Compound 108] | < 0.1 | ≥ 1 | < 0.1
21 | CCOc1cnn(-c2ccc(C(F)(F)F)cc2C(F)(F)F)c1C(=O)Nc1ccc(Oc2ccnc3cc(OC)c(OC)cc23)cn1 [Compound 110] | 0.1 to 1 | < 0.1 | < 0.1
22 | CCOc1cn(-c2ccc(Cl)cc2CC)nc1C(=O)Nc1ccc(Oc2ccnc3cc(OC)c(OC)cc23)cn1 [Compound 111] | < 0.1 | < 0.1 | < 0.1
23 | CCOc1cn(-c2ccc(F)cc2CC)nc1C(=O)Nc1ccc(Oc2ccnc3cc(OC)c(OC)cc23)cn1 [Compound 112] | < 0.1 | < 0.1 | < 0.1
24 | CCOc1cn(-c2ccc(OC(F)(F)F)cc2C)nc1C(=O)Nc1ccc(Oc2ccnc3cc(OC)c(OC)cc23)cn1 [Compound 113] | < 0.1 | 0.1 to 1 | < 0.1
25 | CCOc1cn(-c2ccc(C(F)(F)F)cc2F)nc1C(=O)Nc1ccc(Oc2ccnc3cc(OC)c(OC)cc23)cn1 [Compound 114] | < 0.1 | < 0.1 | < 0.1

The next lines start with results.

Row | Kd (Mer) [µM] | Kd (Met) [µM] | SMILES | IC50 [1] [µM]
26 | < 0.1 | < 0.1 | CCOc1cn(-c2ccc(OC(F)(F)F)cc2Cl)nc1C(=O)Nc1ccc(Oc2ccnc3cc(OC)c(OC)cc23)cn1 [Compound 115] | < 0.1
27 | < 0.1 | 0.1 to 1 | CCOc1cn(-c2ccc(C(C)C)cc2)nc1C(=O)Nc1ccc(Oc2ccnc3cc(OC)c(OC)cc23)cn1 [Compound 116] | < 0.1
28 | < 0.1 | < 0.1 | CCOc1cn(-c2c(C)cc(C)cc2C)nc1C(=O)Nc1ccc(Oc2ccnc3cc(OC)c(OC)cc23)cn1 [Compound 117] | < 0.1
29 | < 0.1 | 0.1 to 1 | CCOc1cn(-c2ccc(OC(F)(F)F)cc2F)nc1C(=O)Nc1ccc(Oc2ccnc3cc(OC)c(OC)cc23)cn1 [Compound 120] | < 0.1
30 | < 0.1 | < 0.1 | CCOc1cn(-c2ccc(F)c(CN(C)C)c2)nc1C(=O)Nc1ccc(Oc2ccnc3cc(OC)c(OC)cc23)cn1 [Compound 124] | < 0.1
31 | < 0.1 | < 0.1 | CCOc1cn(-c2ccc(F)cc2C(C)C)nc1C(=O)Nc1ccc(Oc2ccnc3cc(OC)c(OC)cc23)cn1 [Compound 125] | < 0.1
32 | < 0.1 | < 0.1 | CCOc1cn(-c2ccc(Cl)c(CN(C)C)c2)nc1C(=O)Nc1ccc(Oc2ccnc3cc(OC)c(OC)cc23)cn1 [Compound 126] | < 0.1
33 | < 0.1 | < 0.1 | CCOc1cn(-c2ccc(C(C)C)cc2F)nc1C(=O)Nc1ccc(Oc2ccnc3cc(OC)c(OC)cc23)cn1 [Compound 127] | < 0.1
34 | < 0.1 | < 0.1 | CCOc1cn(-c2ccc(F)c(CO)c2)nc1C(=O)Nc1ccc(Oc2ccnc3cc(OC)c(OC)cc23)cn1 [Compound 128] | < 0.1
35 | < 0.1 | < 0.1 | CCOc1cn(-c2ccc(Cl)c(C(=O)N(C)C)c2)nc1C(=O)Nc1ccc(Oc2ccnc3cc(OC)c(OC)cc23)cn1 [Compound 129] | < 0.1
36 | < 0.1 | < 0.1 | CCOc1cnn(-c2ccc(Cl)c(CN(C)C)c2)c1C(=O)Nc1ccc(Oc2ccnc3cc(OC)c(OC)cc23)cn1 [Compound 130] | < 0.1
